Here are results for one molecule from paper PMC5007650, “Crystal structure of the two-subunit tRNA m^1A58 methyltransferase TRM6-TRM61 from Saccharomyces cerevisiae” (Scientific Reports, 2016).

Common to all, as to experiment: isothermal titration calorimetry, single-site fit
Holding throughout (format): binding
(In general: In ITC the heat of successive injections is recorded.)

Test [1] has as its target T1, TRM6-TRM61 holoenzyme (Saccharomyces cerevisiae, UniProt P46959, V169A).
T1 construct: gene GCD14; full-length TRM6 (478 residues) and TRM61 co-expressed from pETDuet-TRM6-TRM61 in bacteria; Ni-NTA and gel filtration; with tRNA (adenine(58)-N(1))-methyltransferase non-catalytic subunit TRM6
From the text:
(§1) isothermal titration calorimetry, single-site fit on TRM6-TRM61 holoenzyme

Test [2] has as its target T2, TRM6-TRM61 holoenzyme (Saccharomyces cerevisiae, UniProt P46959, F140A).
T2 construct: gene GCD14; full-length TRM6 (478 residues) and TRM61 co-expressed from pETDuet-TRM6-TRM61 in bacteria; Ni-NTA and gel filtration; with tRNA (adenine(58)-N(1))-methyltransferase non-catalytic subunit TRM6
From the text: as §1

In test [3] the target is T3, TRM6-TRM61 holoenzyme (Saccharomyces cerevisiae, UniProt P46959, F124A).
T3 construct: gene GCD14; full-length TRM6 (478 residues) and TRM61 co-expressed from pETDuet-TRM6-TRM61 in bacteria; Ni-NTA and gel filtration; with tRNA (adenine(58)-N(1))-methyltransferase non-catalytic subunit TRM6
T3 sequence (P46959 whole entry F124A): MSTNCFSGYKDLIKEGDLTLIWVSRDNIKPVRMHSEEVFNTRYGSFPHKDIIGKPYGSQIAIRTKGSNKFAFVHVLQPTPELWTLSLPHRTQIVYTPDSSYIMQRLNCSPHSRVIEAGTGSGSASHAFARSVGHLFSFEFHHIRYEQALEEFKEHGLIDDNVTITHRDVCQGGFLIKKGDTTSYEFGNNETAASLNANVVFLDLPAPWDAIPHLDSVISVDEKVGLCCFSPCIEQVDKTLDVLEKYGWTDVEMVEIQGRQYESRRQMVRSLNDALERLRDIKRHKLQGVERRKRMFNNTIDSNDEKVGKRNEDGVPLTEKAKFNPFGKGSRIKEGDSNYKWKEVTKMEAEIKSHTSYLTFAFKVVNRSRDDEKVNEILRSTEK
T3 sequence (P41814 whole entry partner): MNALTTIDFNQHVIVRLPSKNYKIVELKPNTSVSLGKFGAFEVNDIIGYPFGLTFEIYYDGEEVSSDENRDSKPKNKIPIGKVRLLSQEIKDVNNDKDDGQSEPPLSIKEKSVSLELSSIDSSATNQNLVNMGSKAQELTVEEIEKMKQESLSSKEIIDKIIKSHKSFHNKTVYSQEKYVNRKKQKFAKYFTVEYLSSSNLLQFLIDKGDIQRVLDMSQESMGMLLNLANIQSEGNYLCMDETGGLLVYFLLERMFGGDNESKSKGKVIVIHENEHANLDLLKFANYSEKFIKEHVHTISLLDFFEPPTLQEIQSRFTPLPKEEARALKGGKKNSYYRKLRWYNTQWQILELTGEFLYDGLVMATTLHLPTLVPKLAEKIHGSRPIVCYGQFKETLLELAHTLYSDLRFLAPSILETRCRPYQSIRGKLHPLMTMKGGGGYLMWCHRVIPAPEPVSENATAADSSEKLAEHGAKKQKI
From the text: as §1

Test [4] has as its target T4, TRM6-TRM61 holoenzyme (Saccharomyces cerevisiae, UniProt P46959).
T4 construct: gene GCD14; full-length TRM6 (478 residues) and TRM61 co-expressed from pETDuet-TRM6-TRM61 in bacteria; Ni-NTA and gel filtration; with tRNA (adenine(58)-N(1))-methyltransferase non-catalytic subunit TRM6

T2 sequence (P46959 whole entry F140A): as the sequence (P46959 whole entry F124A) above, with A124F, F140A counted along it
T2 sequence (P41814 whole entry partner): as the sequence (P41814 whole entry partner) above
T1 sequence (P46959 whole entry V169A): as the sequence (P46959 whole entry F124A) above, with A124F, V169A counted along it
T1 sequence (P41814 whole entry partner): as the sequence (P41814 whole entry partner) above
T4 sequence (P46959 whole entry): as the sequence (P46959 whole entry F124A) above, with A124F counted along it
T4 sequence (P41814 whole entry partner): as the sequence (P41814 whole entry partner) above

In the case of `C[S+](CC[C@H](N)C(=O)O)C[C@H]1O[C@@H](n2cnc3c(N)ncnc32)[C@H](O)[C@@H]1O` (stereo partly shown) [SAM], the dissociation constant (Kd) on TRM6-TRM61 holoenzyme [1] was determined as 409 ± 74.7 µM; at TRM6-TRM61 holoenzyme [2] it was 787 ± 64.5 µM; on TRM6-TRM61 holoenzyme [3], 317 ± 34.7 µM; at TRM6-TRM61 holoenzyme [4], 44.3 ± 4.55 µM.

One may read the Kd as the constant that tells how readily two partners part at equilibrium.
